# Assay results taken from patent US20080188513A1, “1-(2-Methylpropyl)-1H-Imidazo[4,5-C](1,5]Naphthyridin-4-Amine Ethanesulfonate and 1-(2-Methylpropyl)-1H-Imidazo[4,5-C](1,5]Naphthyridin-4-Amine Methanesulfonate” (taked Pharmaceutical Company Limited, priority 2004, published 2008).
# Several values for one entry are separate records, joined by “and”; a condition that tells them apart may be missing. Identical values can stand only once.
# How the values were obtained:
# cytokine biosynthesis = conditions: U.S. Pat. No. 6,194,425; cited from earlier work
# [1] = In-situ salt selection test carried out in water; format: physicochemical; conditions: for aqueous solubility (in words): summary statement; for Appearance: appearance of the resulting solution after 24 hours at 25° C., in water; for solubility at 24 h: water (salt formed in situ with aqueous acid), thermodynamic from solid
# Experimental: Aqueous solutions (0.5 molar (M)) of ethanesulfonic acid, methanesulfonic acid, and hydrochloric acid were prepared. For ethanesulfonic acid and methanesulfonic acid, the neat acid (0.05 mol) was dissolved in water (100 mL) to prepare the solutions. Hydrochloric acid (1 normal (N)) was diluted with water to prepare 0.5 M hydrochloric acid. The free base of 1-(2-methylpropyl)-1H-imidazo[4,5-c][1,5]naphthyridin-4-amine in an amount indicated in the following Table 1 was added to a vial, and the acidic solution from the following Table 1 (1.05 equivalent) was added. The vial was capped and shaken at 25° C. in a water bath for 24 hours. The resulting salt mixture or solution was filtered through Whatman No. 5 filter paper, and 1 mL of the filtrate was diluted with methanol (10 mL) to provide a specimen for analysis. The solubility of the salt in water was determined for each specimen by analyzing for soluble salt content by reverse phase high performance liquid chromatography (HPLC) using the following method.
# A diluent was prepared by dissolving phosphoric acid (1 mL of 85%) in HPLC grade water (1 L). The resulting solution was mixed in a 60:40 ratio with acetonitrile. Each specimen was diluted to a volume of 50.0 mL with the diluent to provide a sample having a concentration of less than or equal to (≦) 50 micrograms per milliliter (μg/mL).
# An external standard was prepared by dissolving 1-(2-methylpropyl)-1H-imidazo[4,5-c][1,5]naphthyridin-4-amine free base (25 mg) in methanol (30 mL) with the aid of sonication and then diluting to a volume of 50.0 mL with methanol to provide a stock solution. Diluent was added to 5 mL of the stock solution to a volume of 50.0 mL.
# A Waters LC Module 1 HPLC system equipped with an autosampler, a reproducible injector, a UV detector (326 nm wavelength), and Turbochrom data acquisition software was used with a ZORBAX Bonus-RP C14, 15 cm×4.6 mm column with 5 μm packing. The mobile phase was prepared by dissolving 1-octanesulfonate, sodium salt (2.00 g) and phosphoric acid (1 mL of 85%) in HPLC grade water (1 L) and mixing the resulting solution in a 65:35 ratio with HPLC grade acetonitrile. A flow rate of 1.0 mL/min was used.
# The column was equilibrated with the mobile phase, and the system was tested using six 20 μL injections of the external standard to ensure that the relative standard deviation for the peak areas was less than or equal to (≦) 1.5%. An injection of each sample (20 μL) was tested in comparison to a standard. The concentration, in percentage, of 1-(2-methylpropyl)-1H-imidazo[4,5-c][1,5]naphthyridin-4-amine in solution was then calculated using the following operation: {[peak area of the sample/weight of the sample (mg)]/[peak area of the standard/weight of the standard (mg)]average}×100. The solubility of the salt, presented in the following Table 1, can then be calculated using the equations presented by Tong, W. Q., and Whitesell, G, Pharmaceutical Development and Technology, 3(2), pp. 215-223 (1998).
# [2] = Aqueous solubility of the free base measured potentiometrically as a function of pH (p-SOL microtitrator); format: physicochemical; conditions: saline or isotonic, thermodynamic from solid, 0.15 M aqueous potassium chloride, potentiometric titration, read-out: intrinsic solubility (So)
# Experimental: (§1) The aqueous solubility of 1-(2-methylpropyl)-1H-imidazo[4,5-c][1,5]naphthyridin-4-amine free base was measured potentiometrically as a function of pH. […] The titration was carried out on a sample approximately 3 mg in size. […] The pKa of 1-(2-methylpropyl)-1H-imidazo[4,5-c][1,5]naphthyridin-4-amine, determined potentiometrically in a separate experiment to be 6.1, was used in the calculation to determine the intrinsic solubility. The curve showing solubility as a function of pH for 1-(2-methylpropyl)-1H-imidazo[4,5-c][1,5]naphthyridin-4-amine free base is shown in FIG. 5.
# [3] = pKa determined potentiometrically; format: physicochemical; conditions: determined potentiometrically in a separate experiment
# Experimental: as §1
# [4] = Physical and chemical stability in solid form; format: physicochemical
# [5] = test system: interferon (α) and tumor necrosis factor (α) secreted by peripheral blood mononuclear cells (PBMC); test: Cytokine induction in human cells (PBMC); format: cell-based; conditions: 18 to 24 hours, 30-0.014 μM
# Text: An in vitro human blood cell system is used to assess cytokine induction. Activity is based on the measurement of interferon (α) and tumor necrosis factor (α) (IFN and TNF, respectively) secreted into culture media as described by Testerman et al. in “Cytokine Induction by the Immunomodulators Imiquimod and S-27609,” Journal of Leukocyte Biology, 58, 365-372 (September, 1995).
# Whole blood from healthy human donors is collected by venipuncture into EDTA vacutainer tubes. Peripheral blood mononuclear cells (PBMC) are separated from whole blood by density gradient centrifugation using HISTOPAQUE-1077. […]
# Following incubation the plates are centrifuged for 10 minutes at 1000 revolutions per minute (rpm) (approximately 200×g) at 4° C. […] The samples are analyzed for interferon (α) by ELISA and for tumor necrosis factor (α) by ELISA or IGEN Assay.
# Interferon (α) concentration is determined by ELISA using a Human Multi-Species kit from PBL Biomedical Laboratories, New Brunswick, N.J. Results are expressed in pg/mL.
# Tumor necrosis factor (α) (TNF) concentration is determined using ELISA kits available from Biosource International, Camarillo, Calif. Alternately, the TNF concentration can be determined by ORIGEN M-Series Immunoassay and read on an IGEN M-8 analyzer from IGEN International, Gaithersburg, Md. […]
# [6] = In-situ salt selection test carried out in water with a cosolvent; format: physicochemical; conditions: 25 °C, aqueous with cosolvent or surfactant or cyclodextrin, thermodynamic from solid, final acid concentration 0.05 M
# [7] = 5% (w/w) diethylene glycol monoethyl ether in water
# [8] = 5% (w/w) propylene glycol in water
# [9] = salt formed in situ in water, shaken at 25° C. for 24 hours, filtrate by HPLC
Structure (SMILES),melting point,aqueous solubility (in words) [1],solubility [2],pKa [3],"solubility at 24 h [6, 7]","solubility at 24 h [6, 8]",Appearance [1],"solubility at 24 h [1, 9]","solubility [1, 9]",ability to induce cytokine biosynthesis (cytokine biosynthesis),physical and chemical stability in solid form [4],induction of interferon α and/or tumor necrosis factor α production [5]
CC(C)Cn1cnc2c(N)nc3cccnc3c21.CCS(=O)(=O)O.O (hydrate or solvate),221.5 to 223.4 °C and 220 to 221 °C,–,–,–,–,–,–,–,–,–,–,–
"CC(C)Cn1cnc2c(N)nc3cccnc3c21.CCS(=O)(=O)O [Ethanesulfonic, 1-(2-methylpropyl)-1H-imidazo[4,5-c][1,5]naphthyridin-4-amine ethanesulfonate]",–,good aqueous solubility,–,–,10.5 mg/mL,> 10.1 mg/mL,Clear,24.4 mg/mL,–,–,good physical and chemical stability in solid form,inducing the production of interferon α and/or tumor necrosis factor α

# More lines, main results first:
melting point,aqueous solubility (in words) [1],solubility [2],pKa [3],"solubility at 24 h [6, 7]","solubility at 24 h [6, 8]",Appearance [1],"solubility at 24 h [1, 9]","solubility [1, 9]",Structure (SMILES),ability to induce cytokine biosynthesis (cytokine biosynthesis),physical and chemical stability in solid form [4],induction of interferon α and/or tumor necrosis factor α production [5]
–,particularly low aqueous solubility,0.003 mg/mL,6.1,–,–,–,–,–,"CC(C)Cn1cnc2c(N)nc3cccnc3c21 [1-(2-methylpropyl)-1H-imidazo[4,5-c][1,5]naphthyridin-4-amine]",ability to induce cytokine biosynthesis,–,–
–,low aqueous solubility,–,–,–,–,"Milky,",–,0.39 mg/mL,"CC(C)Cn1cnc2c(N)nc3cccnc3c21.Cl [Hydrochloric, hydrochloride salt of 1-(2-methylpropyl)-1H-imidazo[4,5-c][1,5]naphthyridin-4-amine, reference compound]",–,–,–
–,good aqueous solubility,–,–,10.5 mg/mL,10.3 mg/mL,Translucent,15.2 mg/mL,–,"CC(C)Cn1cnc2c(N)nc3cccnc3c21.CS(=O)(=O)O [Methanesulfonic, 1-(2-methylpropyl)-1H-imidazo[4,5-c][1,5]naphthyridin-4-amine methanesulfonate]",–,good physical and chemical stability in solid form,–
